This note sets out measurements from publication PMC11369174, “Proteome-scale characterisation of motif-based interactome rewiring by disease mutations” (Molecular Systems Biology, 2024).

A word on the Kd: it is the concentration at which binding is half-saturated.

Test [1] addresses T1, CASK kinase domain (Homo sapiens, UniProt O14936).
T1 sequence (O14936 1-340): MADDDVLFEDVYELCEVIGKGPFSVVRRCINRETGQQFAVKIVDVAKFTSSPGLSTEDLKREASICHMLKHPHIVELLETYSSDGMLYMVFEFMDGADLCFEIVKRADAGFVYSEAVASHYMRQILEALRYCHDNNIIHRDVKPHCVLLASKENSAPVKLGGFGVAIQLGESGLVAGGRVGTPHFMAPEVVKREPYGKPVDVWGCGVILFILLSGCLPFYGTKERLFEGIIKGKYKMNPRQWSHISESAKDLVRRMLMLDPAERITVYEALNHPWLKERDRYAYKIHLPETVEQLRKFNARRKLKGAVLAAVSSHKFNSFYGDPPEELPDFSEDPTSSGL
The test is described as follows: GenVar_HD2 ProP-PD phage selection, CASK kinase domain. The settings on record: bait CASK kinase domain; from NGS counts of overlapping wild-type/mutant library peptide pairs; positive = mutation enhances, negative = disrupts binding. The method, then:
(§1) Phage display screens were performed according to previous reports (Benz et al, [2022]; Ali et al, [2020]) and for four consecutive selection rounds with five to six replicates per bait protein domain against the […] library.
(§2) On the first day, both bait (15 µg in 100 µL PBS) and control protein domains (GST and MBP; 10 µg in 100 µL PBS) were immobilised on a 96-well MaxiSorb plate (Nunc) overnight in the cold room while shaking. Additionally, a 10 mL culture of Omnimax E. coli bacteria supplemented with 10 µg/mL tetracycline was incubated overnight at 37 °C at 200 rpm.
(§3) First, protein solutions were removed from both control and bait protein domain plates and the wells were blocked with 0.5% BSA in PBS (200 µL/well) for 1 h in the cold room while shaking. After that, three Omnimax E. coli cultures were started supplemented with either 30 µg/mL kanamycin, 100 µg/mL carbenicillin and 10 µg/mL tetracycline and incubated at 37 °C and 200 rpm. The two first cultures served as a means to check for helper phage contamination (kanamycin) and phages with library phagemid contamination (carbenicillin) of the culture used for elution of the phages during selections. The tetracycline Omnimax E. coli culture was grown until OD at 600 nm reached 0.6–0.8. […]

In a further test the target is G3BP1 NTF2 (Homo sapiens, UniProt Q13283). Kind of test: GenVar_HD2 ProP-PD phage selection, G3BP1 NTF2. Particulars: bait G3BP1 NTF2; from NGS counts of overlapping wild-type/mutant library peptide pairs; positive = mutation enhances, negative = disrupts binding. The method, then: as §1, §2, §3
The target in test [2] is T2, MAP1LC3B ATG8 (Homo sapiens, UniProt Q9GZQ8). The test is described as follows: FP displacement assay, MAP1LC3B ATG8. Particulars: read-out: KD-values [µM] + SEM. The class given is binding.
Protocol: (§4) FP experiments were performed, as previously described (Kliche et al, [2021], [2023]), on an iD5 plate reader (Molecular devices) using black half-area non-binding 96-well plates (Corning). In order to calculate the FP signal in millipolarisation (mP), the FITC-labelled peptides were excited at 485 nm and the emitted light was measured at 535 nm in two different angles. For saturation experiments, a dilution series of the respective protein domains was generated (25 µL) and 10 nM fluorescein isothiocyanate (FITC)-labelled peptide (diluted in 50 mM sodium phosphate buffer pH 7.4, 0.05% Tween) were added in an end volume of 50 µL. A control experiment titrating GST was performed for the binding of the NEDD4 WW2 domain, since the GST-tagged construct was used for affinity measurements. For fitting the data, the buffer-corrected reduced values were plotted in GraphPad PRISM against the respective protein concentration and the KD-values were obtained by fitting against the quadratic equation (Gianni et al, [2005]).
(§5) The buffer-corrected reduced values were subsequently plotted against the logarithmic unlabelled peptide concentration to derive the IC50 values by using the sigmoidal dose-response (x is logarithmic) fit in GraphPad PRISM and calculate the KD values as described previously (Nikolovska-Coleska et al, [2004]).
The next test concerns the target GABARAPL1 ATG8 (Homo sapiens, UniProt Q9H0R8). The test is described as follows: FP displacement assay, GABARAPL1 ATG8. The class given is binding. Particulars: read-out: KD-values [µM] + SEM.
The target in test [3] is T2, MAP1LC3B ATG8. The test is described as follows: Isothermal titration calorimetry, MAP1LC3B ATG8. Particulars: ITC; for N (stoichiometry of the interaction): N value from the fit or set if necessary. Set-up: S∆T / ∆H: unit not given here. The format is binding. (Isothermal titration calorimetry measures the heat released or taken up as one component is titrated into another.)

The target in test [4] is T2, MAP1LC3B ATG8. The test is described as follows: GenVar_HD2 ProP-PD phage selection, MAP1LC3B ATG8. The settings on record: bait MAP1LC3B ATG8; from NGS counts of overlapping wild-type/mutant library peptide pairs; positive = mutation enhances, negative = disrupts binding. The method, then:
as §1, §2
First, protein solutions were removed from both control and bait protein domain plates and the wells were blocked with 0.5% BSA in PBS (200 µL/well) for 1 h in the cold room while shaking. After that, three Omnimax E. coli cultures were started supplemented with either 30 µg/mL kanamycin, 100 µg/mL carbenicillin and 10 µg/mL tetracycline and incubated at 37 °C and 200 rpm. The two first cultures served as a means to check for helper phage contamination (kanamycin) and phages with library phagemid contamination (carbenicillin) of the culture used for elution of the phages during selections. The tetracycline Omnimax E. coli culture was grown until OD at 600 nm reached 0.6–0.8.
Naïve phage libraries were precipitated (10 µL/well of bait protein domain) by diluting the library tenfold with PBS, adding one-fourth of 20% […] and 400 mM NaCl and incubating the mixture for 15 min on ice. Subsequently, phages were spun down for 15 min at 13,000 × g and resuspended in 0.5% BSA and 0.05% Tween-20 in PBS (100 µL/well). Control domain plates were washed four times with 200 µL 0.05% Tween-20 in PBS, 100 µL of the naïve phage library (10^11 phages/mL) were added to every well and the plates incubated for 1 h in the cold room while shaking. Next, protein bait domain plates were washed four times with 0.05% Tween-20 in PBS and the phage solution from the control protein plate was transferred to the respective wells on the protein bait domain plate. […]

Another test deals with KPNA4 ARM. Kind of test: GenVar_HD2 ProP-PD phage selection, KPNA4 ARM. The class given is binding, human. The settings on record: bait KPNA4 ARM; from NGS counts of overlapping wild-type/mutant library peptide pairs; positive = mutation enhances, negative = disrupts binding.
The target in a further test is KPNA4 ARM minor (Homo sapiens, UniProt O00629). Kind of test: FP displacement assay, KPNA4 ARM minor pocket. The format is binding.
The target of the next test is KPNA4 ARM major (Homo sapiens, UniProt O00629). Kind of test: FP displacement assay, KPNA4 ARM major pocket. The class given is binding.
The target in test [5] is T3, NEDD4 WW2 (Homo sapiens, UniProt P46934). Kind of test: FP displacement assay, NEDD4 WW2. The class given is binding. The settings on record: read-out: KD-values [µM] + SEM.
Protocol: For saturation experiments, a dilution series of the respective protein domains was generated (25 µL) and 10 nM fluorescein isothiocyanate (FITC)-labelled peptide (diluted in 50 mM sodium phosphate buffer pH 7.4, 0.05% Tween) were added in an end volume of 50 µL. A control experiment titrating GST was performed for the binding of the NEDD4 WW2 domain, since the GST-tagged construct was used for affinity measurements.
If the raw values indicated a FITC-contamination of the unlabelled peptide, the data was excluded and a new batch of peptide was ordered for remeasuring the affinity.
Test [6] addresses T3, NEDD4 WW2. The test is described as follows: GenVar_HD2 ProP-PD phage selection, NEDD4 WW2. Particulars: bait NEDD4 WW2; from NGS counts of overlapping wild-type/mutant library peptide pairs; positive = mutation enhances, negative = disrupts binding. The method, then: as §1, §2, §3
Test [7] concerns the target T4, CLTC NTD (Homo sapiens, UniProt Q00610).
T4 sequence (Q00610 1-364): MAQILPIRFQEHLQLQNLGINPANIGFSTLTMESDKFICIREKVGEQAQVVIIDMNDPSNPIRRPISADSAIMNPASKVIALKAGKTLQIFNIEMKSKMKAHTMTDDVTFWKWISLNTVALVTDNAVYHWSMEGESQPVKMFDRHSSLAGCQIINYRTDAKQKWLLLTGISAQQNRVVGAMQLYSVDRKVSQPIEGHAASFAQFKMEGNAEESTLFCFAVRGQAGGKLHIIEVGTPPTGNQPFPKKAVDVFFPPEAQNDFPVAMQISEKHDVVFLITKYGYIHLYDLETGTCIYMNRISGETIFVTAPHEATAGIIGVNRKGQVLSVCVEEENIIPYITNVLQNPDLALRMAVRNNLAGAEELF
Kind of test: FP displacement assay, CLTC NTD. The class given is binding. Particulars: read-out: KD-values [µM] + SEM.
Protocol: (§6) FP experiments were performed, as previously described (Kliche et al, [2021], [2023]), on an iD5 plate reader (Molecular devices) using black half-area non-binding 96-well plates (Corning). In order to calculate the FP signal in millipolarisation (mP), the FITC-labelled peptides were excited at 485 nm and the emitted light was measured at 535 nm in two different angles. For saturation experiments, a dilution series of the respective protein domains was generated (25 µL) and 10 nM fluorescein isothiocyanate (FITC)-labelled peptide (diluted in 50 mM sodium phosphate buffer pH 7.4, 0.05% Tween) were added in an end volume of 50 µL. […] For fitting the data, the buffer-corrected reduced values were plotted in GraphPad PRISM against the respective protein concentration and the KD-values were obtained by fitting against the quadratic equation (Gianni et al, [2005]).
as §5

Test [8] addresses T4, CLTC NTD. Kind of test: GenVar_HD2 ProP-PD phage selection, CLTC NTD. Particulars: bait CLTC NTD; from NGS counts of overlapping wild-type/mutant library peptide pairs; positive = mutation enhances, negative = disrupts binding. The method, then: as §1, §2, §3
Another test concerns the target USP7 MATH/TRAF (Homo sapiens, UniProt Q93009). The test is described as follows: FP displacement assay, USP7 MATH/TRAF. The class given is binding. The settings on record: read-out: KD-values [µM] + SEM.
Test [9] addresses T1, CASK kinase domain. Kind of test: FP displacement assay, CASK kinase domain. Particulars: FP displacement of FITC-PER2 (10 nM) complexed with domain (1-2x KD), 50 mM sodium phosphate pH 7.4, 100 mM NaCl, KD from IC50, technical triplets, n.b. = not binding within concentration range used.
Protocol: as §4, §5

T3 sequence (P46934 765-803 limits assumed): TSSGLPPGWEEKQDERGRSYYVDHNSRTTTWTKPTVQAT
G3BP1 NTF2, sequence (Q13283 1-139): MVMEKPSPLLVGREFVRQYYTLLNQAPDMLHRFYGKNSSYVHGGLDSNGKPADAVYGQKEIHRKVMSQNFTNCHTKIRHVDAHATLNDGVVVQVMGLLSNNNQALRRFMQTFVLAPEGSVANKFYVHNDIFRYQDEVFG
KPNA4 ARM minor, sequence (O00629 68-487): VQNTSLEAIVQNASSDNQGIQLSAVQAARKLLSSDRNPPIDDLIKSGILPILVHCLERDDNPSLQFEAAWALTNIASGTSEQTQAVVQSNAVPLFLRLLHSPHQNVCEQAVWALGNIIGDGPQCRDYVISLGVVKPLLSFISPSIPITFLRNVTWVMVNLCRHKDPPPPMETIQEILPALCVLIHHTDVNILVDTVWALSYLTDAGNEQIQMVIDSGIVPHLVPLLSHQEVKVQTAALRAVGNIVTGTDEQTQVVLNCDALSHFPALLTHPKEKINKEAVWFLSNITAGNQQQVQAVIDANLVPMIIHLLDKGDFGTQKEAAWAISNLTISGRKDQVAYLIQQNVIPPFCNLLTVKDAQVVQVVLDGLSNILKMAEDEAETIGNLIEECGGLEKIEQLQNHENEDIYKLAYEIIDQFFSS
KPNA4 ARM major, sequence (O00629 68-487): as above
USP7 MATH/TRAF, sequence (Q93009 53-206): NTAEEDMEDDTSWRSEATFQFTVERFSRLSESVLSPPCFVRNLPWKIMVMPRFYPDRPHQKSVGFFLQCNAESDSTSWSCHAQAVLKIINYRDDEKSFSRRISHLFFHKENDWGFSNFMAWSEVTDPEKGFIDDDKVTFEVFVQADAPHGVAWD
GABARAPL1 ATG8, sequence (Q9H0R8 2-115): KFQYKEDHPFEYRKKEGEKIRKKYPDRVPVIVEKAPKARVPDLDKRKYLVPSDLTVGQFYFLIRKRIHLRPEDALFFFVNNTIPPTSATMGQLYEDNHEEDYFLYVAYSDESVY
Protocol for GABARAPL1 ATG8: as §6, §5
Protocol for KPNA4 ARM major: as §4, §5
Protocol for KPNA4 ARM minor: as §4, §5
Protocol for USP7 MATH/TRAF: as §6, §5

On to `CSCC[C@H](NC(C)=O)C(=O)N[C@@H](CO)C(=O)N[C@@H](CC(=O)O)C(=O)N[C@@H](CC(C)C)C(=O)N[C@@H](Cc1c[nH]c2ccccc12)C(=O)N[C@H](C(=O)N1CCC[C@H]1C(=O)N[C@@H](CC(N)=O)C(=O)N[C@@H](CO)C(=O)N[C@@H](C)C(=O)N[C@@H](CO)C(=O)NCC(=O)N[C@@H](CCC(N)=O)C(=O)N[C@@H](CC(=O)O)C(=O)N1CCC[C@H]1C(=O)NCC(N)=O)C(C)C` [FANCA_1-16 S4L], for which, on CASK kinase domain [1], the Mutation enrichment score amounted to 6.

As for `CC(=O)N[C@@H](CCC(=O)O)C(=O)N[C@@H](Cc1ccccc1)C(=O)N1CCC[C@H]1C(=O)N[C@H](C(=O)N1CCC[C@H]1C(=O)N[C@@H](Cc1ccccc1)C(=O)N[C@@H](Cc1ccccc1)C(=O)NCC(=O)N[C@@H](CO)C(=O)N[C@@H](CC(N)=O)C(=O)N[C@@H](CC(=O)O)C(=O)N[C@@H](Cc1ccc(O)cc1)C(=O)N[C@@H](CC(C)C)C(=O)N[C@@H](Cc1c[nH]c2ccccc12)C(=O)N[C@H](C(=O)N[C@@H](Cc1c[nH]cn1)C(N)=O)[C@@H](C)O)C(C)C` [NSD1_1793-1808 L1797P], on G3BP1 NTF2, the Mutation enrichment score is given as −7.4.

On to “Ac-DKDEWQSLDQNEDAFE-NH2 [BUB1_486-501 wild-type]”, for which the Kd was 7 ± 1 µM on MAP1LC3B ATG8 [2] and 5.5 ± 0.7 µM at GABARAPL1 ATG8.

“Ac-EDEVYEILRDTSEEDS-NH2 [BRCA2_292-307 T298I/V299L/V300R]”: the Kd worked out at 0.52 ± 0.01 µM at MAP1LC3B ATG8 [2] and 2000 nM on MAP1LC3B ATG8 [3] (KD (isothermal titration calorimetry), 50 mM sodium phosphate pH 7.4, 1 mM DTT, peptide titrated in tenfold excess, 16 injections). The Ka at MAP1LC3B ATG8 [3] (replicate 1) is recorded as 388000; at MAP1LC3B ATG8 [3] (replicate 2) it was 524000; on MAP1LC3B ATG8 [3] (replicate 3), 3280000. The results for the “S∆T” value at MAP1LC3B ATG8 [3] (replicate 1), on MAP1LC3B ATG8 [3] (replicate 2) and at MAP1LC3B ATG8 [3] (replicate 3) were 3.04, 3.49 and 8.75, respectively. Also, the “∆H” value on MAP1LC3B ATG8 [3] (replicate 1) is listed as -6718; at MAP1LC3B ATG8 [3] (replicate 2) it was -6766; on MAP1LC3B ATG8 [3] (replicate 3) it was -6280. The results for the “N (stoichiometry of the interaction)” value at MAP1LC3B ATG8 [3] (replicate 1), on MAP1LC3B ATG8 [3] (replicate 2) and at MAP1LC3B ATG8 [3] (replicate 3) were 0.744, 0.685 and 0.649, respectively. For the same compound, the Mutation enrichment score at MAP1LC3B ATG8 [4] was 15.

“Ac-PELWVAHRTAQHLSAT-NH2 [ZNF526_152-167 L160T]”: the Mutation enrichment score in the test on KPNA4 ARM is on record as −6.4. Moreover, at KPNA4 ARM minor (read-out: KD-values [µM] + SEM), the Kd is 395 ± 10 µM. Further, the “KD-values [µM] + SEM” value at KPNA4 ARM major (major pocket, FP displacement of FITC-MYC (10 nM) complexed with domain (1-2x KD), 50 mM sodium phosphate pH 7.4, KD from IC50, ± SEM, n.b. = not binding within concentration range used) is listed as “n.b”.

As to “Ac-PIPGTPPPNYDSLRLQ-NH2 [SCNN1B_611-626 wild-type]”, the Kd at NEDD4 WW2 [5] was 39 ± 3 µM.

In the case of “Ac-PIPGTPPRNYDSLRLQ-NH2 [SCNN1B_611-626 P618R]”, at NEDD4 WW2 [6], the Mutation enrichment score is given as −16. Also, at NEDD4 WW2 [5], the Kd was 603 ± 73 µM.

With “Ac-PIPGTRPPNYDSLRLQ-NH2 [SCNN1B_611-626 P616R]”, the Mutation enrichment score on NEDD4 WW2 [6] is given as −12. Moreover, the Kd at NEDD4 WW2 [5] was 80 ± 7 µM.

In the case of “Ac-QQSYLDFGIHSGATTT-NH2 [CTNNB1_27-42 S33F]”, the Mutation enrichment score on G3BP1 NTF2 worked out at 9.

With “Ac-SGNLIDLCGNQGLPY-NH2 [MITF_258-271 Y265C]”, the Kd on CLTC NTD [7] amounted to 206 ± 13 µM. At CLTC NTD [8], the Mutation enrichment score was −9.8.

Take “Ac-SGNLIDLYGNQGLPY-NH2 [MITF_258-271 wild-type]”: the Kd at CLTC NTD [7] amounted to 191 ± 27 µM.

Take “Ac-YISSSSTSTMPNSSQSS-NH2 [CHK2_38-53 wild-type]”: the Kd on USP7 MATH/TRAF was 3.1 ± 0.2 µM.

Take “Ac-YLLDGPPNPERAKLSS-NH2 [CREBBP_5-19 K13E]”: the Mutation enrichment score in the test with KPNA4 ARM was −6. Also, at KPNA4 ARM minor (minor pocket, FP displacement of FITC-NCOR2 (10 nM) complexed with domain (1-2x KD), 50 mM sodium phosphate pH 7.4, KD from IC50, technical triplets, ± SEM, n.b. = not binding within concentration range used), the “KD-values [µM] + SEM” value was “n.b”. For the same compound, at KPNA4 ARM major (read-out: KD-values [µM] + SEM), the Kd stood at 860 ± 20 µM.

Turning to “Ac-YSGDTSPWHLSNVSST-NH2 [MAPT_717-731 R723W]”, at CASK kinase domain [1], the Mutation enrichment score is given as 12.

On to “H3COC-MSD(S/L)WVPNSASGQDPG-NH2 [FANCA_1-16 wild-type, wild-type FANCA peptide, residues 1-16]”, for which, on CASK kinase domain [9], the “KD-values [µM] + SEM” value is on record as “n.b”.

As to “H3COC-YSGDTSP(R/W)HLSNVSST-NH2 [MAPT_717-731 wild-type, wild-type MAPT peptide, residues 717-731]”, the “KD-values [µM] + SEM” value on CASK kinase domain [9] was “no binding and n.b”.
